Experimental data published in ChEMBL document CHEMBL5321287, “Discovery, Synthesis, and Evaluation of Novel Dual Inhibitors of a Vascular Endothelial Growth Factor Receptor and Poly(ADP-Ribose) Polymerase for BRCA Wild-Type Breast Cancer Therapy” (J Med Chem, 2023).
The source made the active and inactive calls. The calls are words filed in the database; no cut-off is given here.

How the values were obtained:
HUVEC = assay: cells; conditions: Homo sapiens, 48 h
MCF7 [1] = assay: Induction of apoptosis in human MCF7 cells assessed as increase in Bax level at 4 uM incubated for 2 days in presence of 1:1 of compound:Olaparib by immunoblot analysis; format: functional, cell-based; conditions: time 2.0 day
MCF7 [2] = assay: Antiinvasive activity against human MCF7 cells at 4 uM incubated for 12 hrs in presence of 1:1 of compound:Olaparib by transwell assay; format: functional, cell-based
MDA-MB-231 [3] = assay: Antimetastatic activity against human MDA-MB-231 cells xenografted in lungs of BALB/c nude mouse assessed as decrease in lung metastatic nodules at 50 mg/kg administered once a day measured after 14 days in presence of 1:1 of compound:Olaparib; format: functional, organism-based; conditions: time 14.0 day
MCF7 [4] = assay: Induction of apoptosis in human MCF7 cells assessed as decrease in Bcl-2 level at 4 uM incubated for 2 days in presence of 1:1 of compound:Olaparib by immunoblot analysis; format: functional, cell-based; conditions: time 2.0 day
MDA-MB-231 [5] = assay: Induction of HR DNA repair in human MDA-MB-231 cells xenografted in BALB/c nude mouse assessed as decrease in BRCA1 level at 50 mg/kg, po for 14 days in presence of 1:1 of compound:Olaparib by H and E staining based IHC analysis; format: functional, organism-based; conditions: time 14.0 day
HCC1937 = assay: cells; conditions: Homo sapiens
MCF7 [6] = assay: Induction of apoptosis in human MCF7 cells assessed as increase in cleaved caspase-3 level at 4 uM incubated for 2 days in presence of 1:1 of compound:Olaparib by immunoblot analysis; format: functional, cell-based; conditions: time 2.0 day
MCF7 [7] = assay: Induction of hypoxia in human MCF7 cells assessed as upregulation of HIF-1alpha level at 4 uM incubated for 2 days in presence 1:1 of Olaparib by Western blot analysis; format: functional, cell-based; conditions: time 2.0 day
MCF7 [8] = assay: Induction of cell cycle arrest at G2/M phase in human MCF7 cells at 4 uM in presence of 1:1 of compound:Olaparib by Annexin-V-FLUOS staining based flow cytometry; format: functional
MCF7 [9] = assay: Induction of DNA damage in human MCF7 cells assessed as increase in gamma-H2AX level at 4 uM incubated for 48 hrs in presence of 1:1 of compound:Olaparib by DAPI staining based immunofluorescence analysis; format: functional, cell-based
MDA-MB-231 [10] = assay: Antimigratory activity in human MDA-MB-231 cells assessed as upregulation of E-cadherin level at 4 uM in presence of 1:1 of compound:Olaparib by DAPI staining based immunofluorescence analysis; format: functional, cell-based
MDA-MB-231 [11] = assay: Antimigratory activity in human MDA-MB-231 cells assessed as downregulation of MMP-2 level at 4 uM in presence of 1:1 of compound:Olaparib by DAPI staining based immunofluorescence analysis; format: functional, cell-based
MDA-MB-231 [12] = assay: Induction of HR DNA repair in human MDA-MB-231 cells xenografted in BALB/c nude mouse assessed as decrease in FOXM1 level at 50 mg/kg, po for 14 days in presence of 1:1 of compound:Olaparib by Western blot analysis; format: functional, organism-based; conditions: time 14.0 day
MCF7 [13] = assay: Antimigratory activity in human MCF7 cells assessed as upregulation of E-cadherin level at 4 uM by DAPI staining based immunofluorescence analysis; format: functional, cell-based
MDA-MB-436 = assay: cells; conditions: Homo sapiens

Structure (SMILES): Cc1ccc(Nc2nccc(N(C)c3ccc4c(C)n(C)nc4c3)n2)cc1S(N)(=O)=O [PAZOPANIB]
- IC50 (HUVEC): 4.6 µM
- Activity (MCF7 [1]): Active
- Activity (MCF7 [2]): Active
- Activity (MDA-MB-231 [3]): Active
- Activity (MCF7 [4]): Active
- Activity (MDA-MB-231 [5]): Active
- IC50 (HCC1937): > 10 µM
- Activity (MCF7 [6]): Active
- Activity (MCF7 [7]): Active
- Activity (MCF7 [8]): Active
- Activity (MCF7 [9]): Active
- Activity (MDA-MB-231 [10]): Active
- Activity (MDA-MB-231 [11]): Active
- Activity (MDA-MB-231 [12]): Active
- Activity (MCF7 [13]): Active
- IC50 (MDA-MB-436): > 10 µM
